Counter-ions that a name gives are not always drawn.

Take `CCN(c1ccccc1)S(=O)(=O)c1ccc(-n2[nH]cc(Cc3cncc(OC)c3)c2=O)nc1.Cl`: the melting point worked out at 136 °C.
Turning to `CCNS(=O)(=O)c1ccc(-n2[nH]c(C)c(Cc3cccnc3)c2=O)nc1` (as salt: HCl) [Compound 89], the melting point was found to be 196 °C.
Then `Cc1[nH]n(-c2ccc(S(=O)(=O)Nc3ccccc3)cn2)c(=O)c1Cc1cccnc1` (as salt: HCl) [Compound 90], with 154 °C; and `CCN(c1ccccc1)S(=O)(=O)c1ccc(-n2[nH]cc(Cc3ccccc3)c2=O)nc1` (as salt: HCl) [Compound 93, 6-(4-benzyl-5-oxo-2,5-dihydro-1H-pyrazol-1-yl)-N-ethyl-N-phenylpyridine-3-sulfonamide], with 180 °C.
In turn, `CCN(c1ccccc1)S(=O)(=O)c1ccc(-n2[nH]c(C)c(CC3CCN(C)CC3)c2=O)nc1` (as salt: HCl) [Compound 94] returned a melting point of 150 °C.
In turn, `Cc1[nH]n(-c2ccc(S(=O)(=O)N(C)C3CC3)cn2)c(=O)c1Cc1cccnc1` (as salt: HCl) [Compound 95] showed a melting point of 138 °C.
`COc1cncc(Cc2c(C)[nH]n(-c3ccc(S(=O)(=O)NC(C)(C)C)cn3)c2=O)c1` (as salt: HCl) [Compound 96] had a melting point of 150 °C.
Then `CCN(c1ccccc1)S(=O)(=O)c1ccc(-n2[nH]cc(Cc3cccnc3)c2=O)nc1` (as salt: HCl) [Compound 99], with 142 °C.
Take `CCN(C1CCCC1)S(=O)(=O)c1ccc(-n2[nH]cc(Cc3cccnc3)c2=O)nc1` (as salt: HCl) [Compound 115]: the melting point was 110 °C.
With `CN(C1CCCC1)S(=O)(=O)c1ccc(-n2[nH]cc(Cc3cccnc3)c2=O)nc1` (as salt: HCl) [Compound 117], the melting point worked out at 124 °C.
`CCN(C1CCCC1)S(=O)(=O)c1ccc(-n2[nH]cc(Cc3ccncc3)c2=O)nc1` (as salt: HCl) [Compound 119] registered a melting point of 115 °C.
Take `CN(C1CCCC1)S(=O)(=O)c1ccc(-n2[nH]cc(Cc3ccncc3)c2=O)nc1` (as salt: HCl) [Compound 120]: the melting point was found to be 130 °C.
Regarding `CN(C)CCCN(C1CCCC1)S(=O)(=O)c1ccc(-n2[nH]cc(Cc3ccccc3)c2=O)nc1` (as salt: HCl) [Compound 123, 6-(4-benzyl-5-oxo-2,5-dihydro-1H-pyrazol-1-yl)-N-cyclopentyl-N-[3-(dimethylamino)propyl]pyridine-3-sulfonamide hydrochloride], the melting point was determined as 230 °C.
Next, `COC(=O)CN(C1CCCC1)S(=O)(=O)c1ccc(-n2[nH]cc(Cc3cccnc3)c2=O)nc1` (as salt: HCl) [Compound 128, methyl N-cyclopentyl-N-({6-[5-oxo-4-(pyridin-3-ylmethyl)-2,5-dihydro-1H-pyrazol-1-yl]pyridin-3-yl}sulfonyl)glycinate hydrochloride]: 110 °C; `COC(=O)[C@H]1CCC[C@H]1N(C)S(=O)(=O)c1ccc(-n2[nH]cc(Cc3cccnc3)c2=O)nc1` (as salt: HCl) [Compound 131]: 156 °C; `CC(C)(C)CNS(=O)(=O)c1ccc(-n2[nH]cc(Cc3cccnc3)c2=O)nc1` (as salt: HCl) [Compound 136]: 123 °C.
Take `CCC(C)(C)NS(=O)(=O)c1ccc(-n2[nH]cc(Cc3cccnc3)c2=O)nc1` (as salt: HCl) [Compound 137]: the melting point worked out at 126 °C.
The molecule `CN1CCC(N(C)S(=O)(=O)c2ccc(-n3[nH]cc(Cc4ccccc4)c3=O)nc2)C1` (centres unmarked) (as salt: HCl) [Compound 139] gave a melting point of 130 °C.
Then `COC(C)(C)CNS(=O)(=O)c1ccc(-n2[nH]cc(Cc3ccccc3)c2=O)nc1` (as salt: HCl) [Compound 141], with 194 °C; and `COc1ccncc1Cc1c[nH]n(-c2ccc(S(=O)(=O)N(C)C3CCCC3)cn2)c1=O` (as salt: HCl) [Compound 144], with 40 °C.

As usually defined, the melting point is the temperature, or range, at which the solid turns liquid.

The values are drawn from US8541455B2, “Derivatives of 2-pyridin-2-yl-pyrazol-3(2H)-one, preparation and therapeutic use thereof as HIF activators” (Sanofi, priority 2008, dated 2013).
